Measured values: publication PMC8353886 (ACS Medicinal Chemistry Letters, 2021)

How the values were obtained:
SARS-CoV-1 = conditions: cited from earlier work
MERS = conditions: cited from earlier work
SARS-CoV-2 = conditions: in words; cited from earlier work
[1] = system: SARS-CoV-2 Spike pseudotyped particle (PP); test: microbe, parasite or virus in culture; type: cell-based; conditions: Severe acute respiratory syndrome coronavirus 2, read-out: SARS-CoV-2 PP IC50

SMILES | inhibitory activity against SARS-CoV-1 in the PP entry assay (SARS-CoV-1) | inhibitory activity against MERS in the PP entry assay (MERS) | inhibitory activity against SARS-CoV-2 in the PP entry assay (SARS-CoV-2) | IC50 [1] [µM]
CN1CCN(C(c2ccccc2)c2ccc(Cl)cc2)CC1 (stereo not shown) [CCZ, chlorcyclizine] | inhibitory activities | inhibitory activities | inhibitory activities | –
CN1[C@@H]2CC[C@H]1C[C@@H](OC(c1ccccc1)c1ccc(Cl)cc1)C2 (stereo partly shown) [Clobenztropine] | – | – | – | 12.6
